Assay results reported in patent US10945989B2, “Perinatal treatment with a flavonoid agonist of the TrkB receptor for BDNF rescues neurogenesis and behavior in the Ts65Dn mouse model of DS” (ALMA MATER STUDIORUM—Universita' di Bologna, priority 2017, dated 2021).

What was measured:
Format in all cases: in vivo, mouse
[1] = tested on: neural precursor cells of the DG; assay: BrdU-positive cells in the dentate gyrus of P15 mice; conditions: for number of BrdU-positive cells in the DG: Ts65Dn pups
Protocol: In a pilot study we tested the effects of different doses of 7,8-DHF on the proliferation rate in the SGZ of Ts65Dn mice. Mice received a daily subcutaneous injection of 7,8-DHF (2.5, 5.0, or 10.0 mg/kg in PBS with 1-2% DMSO) from postnatal day 3 (P3) to P15. […] Therefore, this study (Experiment 1 and Experiment 2) was carried out using a 5.0 mg/kg dose.
Euploid and Ts65Dn mice received a daily subcutaneous injection (at 9-10 am) of 7,8-DHF (5.0 mg/kg in vehicle: PBS with 1% DMSO) or vehicle from postnatal day 3 (P3) to postnatal day 15. This timing was chosen because it corresponds to that previously used to test the effects of fluoxetine and other pharmacotherapies in the neonate Ts65Dn mouse (Bianchi et al., 2010b; Giacomini et al., 2015; Stagni et al., 2016). Mice that received 7,8-DHF will be called “treated mice” (treated euploid mice: n=25; treated Ts65Dn mice: n=15). Mice that received the vehicle will be called “untreated mice” (untreated euploid mice: n=35; untreated Ts65Dn mice: n=21). […] The brains were excised and cut along the midline. The left hemisphere of a group of mice was fixed by immersion in PFA 4% and frozen, and the left hemisphere of another group of mice was used for Golgi staining. The right hemispheres of all mice was kept at −80° C. and used for western blotting.
One out of six free-floating sections (n=15-18 sections) from the hippocampal formation of P15 mice was incubated with rat anti-BrdU antibody.
BrdU-positive cells in the DG of P15 mice were detected using a fluorescence microscope (Eclipse; objective: ×40, 0.75 NA; final magnification: ×400). Quantification of BrdU-labeled nuclei was conducted in every 6th section using a modified unbiased stereology protocol that has previously been reported as successfully quantifying BrdU labeling (Malberg et al., 2000; Kempermann and Gage, 2002; Tozuka et al., 2005). All BrdU labeled cells located in the granule cell and subgranular layers were counted in their entire z axis (1 μm steps) in each section. To avoid oversampling errors, nuclei intersecting the uppermost focal plane were excluded. The total number of BrdU labeled cells per animal was determined and multiplied by six to obtain the total estimated number of cells per DG.

[2] = tested on: proliferating cells in the SVZ; assay: Prenatal treatment: BrdU-positive cells in the SVZ of P2 mice
Protocol: Conception was determined by examining the vaginal plug. […] After sacrifice, brain was excised and weighed.
One of 20 sections (n=8-10) from the beginning to the end of the hippocampal formation were subjected to double-fluorescence immunohistochemistry for BrdU and NeuN. Sections were incubated overnight at 4° C. with a primary antibody, rat monoclonal anti-BrdU antibody (AbD Serotec), diluted 1:100 in 0.1% Triton X-100 in PBS and either mouse monoclonal anti-NeuN (Millipore Bioscience Research Reagents) diluted 1:400 in 0.1% Triton X-100 in PBS. Sections were then washed in 0.1% Triton X-100 in PBS for 40 min and incubated for 2 h with a Cy3-conjugated anti-rat IgG (1:200; Jackson Immunoresearch) secondary fluorescent antibody for BrdU immunohistochemistry and FITC-conjugated anti-mouse IgG (1:200; Jackson Immunoresearch) for NeuN immunohistochemistry.
BrdU-positive cells were sampled in the caudal subventricular zone (SVZ) of the lateral ventricle overlying the dentate gyrus and from the subgranular zone (SGZ) of the dentate gyrus (FIG. 10A). The caudal SVZ is the region that stretches from the beginning to the end of the hippocampal formation (BC: 3.27-4.84 mm). Since different regions of the ventricular zone (VZ) and SVZ give origin to neurons destined to different telecephalic areas (Brazel et al., 2003), we evaluated the effects of treatment both in the dorsal and lateral part of the SVZ (FIG. 10B). For cell counting, an area was traced enclosing the whole SVZ and all cells in this area were counted. While at later life stages, neural progenitor cells are only present in the SGZ of the dentate gyrus, in P2 pups proliferating cells can be detected in the perspective molecular layer and hilus. Therefore, cells were counted within a manually-traced area enclosing the whole dentate gyrus (FIG. 10B). […] Quantification of BrdU-labeled nuclei was conducted in every 20th section. The total number of BrdU labeled cells in the SVZ and SGZ was estimated by multiplying the number counted in the sampled sections by the inverse of the section sampling fraction (ssf= 1/20).

[3] = Prenatal treatment: body and brain weight of P2 mice; conditions: P2 Ts65Dn mice, embryonic treatment
Protocol: Ts65Dn females (n=4) were bred C57BL/6JEi×C3SnHeSnJ (B6EiC3) F1 males (n=4). Conception was determined by examining the vaginal plug. Pregnant females received a daily subcutaneous injection of either 7,8-DHF (Sigma-Aldrich) in PBS with 2% DMSO (dose: 5 mg/kg) or vehicle from the embryonic (E) day 10 (E10) to the day of delivery (E20/21). […] On postnatal day 2 (P2) the progeny of 7,8-DHF-treated and vehicle-treated females received an intraperitoneal injection (150 μg/g body weight) of BrdU (Sigma) in 0.9% NaCl solution and were killed after 2 h (on P2; 4-8 animals for each group). Vehicle-treated females and their progeny will be called hereafter untreated mice. The body weight of P2 mice was recorded prior to sacrifice. After sacrifice, brain was excised and weighed.

Structure (SMILES): O=c1cc(-c2ccccc2)oc2c(O)c(O)ccc12 [7,8-DHF, 7,8-dihydroxyflavone]
- number of BrdU-positive cells in the DG ([1]; 2.5 mg/kg P3-P15, vs vehicle): no effect
- number of BrdU-positive cells in the DG ([1]; 5.0 mg/kg P3-P15, vs vehicle): increased the number of BrdU-positive cells
- number of BrdU-positive cells in the DG ([1]; 10.0 mg/kg P3-P15, vs vehicle): increased the number of BrdU-positive cells
- number of NPCs (BrdU-positive cells) in the DG ([1]; euploid mice, 5.0 mg/kg P3-P15): no effect on the number of NPCs
- optimum dose for proliferation rate in the SGZ ([1]; pilot study, Ts65Dn mice, 2.5, 5.0 or 10.0 mg/kg s.c. P3-P15): 5.0 mg/kg
- total number of BrdU-positive (proliferating) cells per DG ([1]; treated Ts65Dn mice, 5.0 mg/kg P3-P15, mean±SE, untreated Ts65Dn 7166±337, untreated euploid 10,281±111): 8963±449
- total number of BrdU-positive cells in the SVZ, treated Ts65Dn vs untreated euploid mice ([2]; P2, treated E10-E20/21): no differences in total number of BrdU-positive cells
- total number of BrdU-positive cells in the SVZ ([2]; P2 Ts65Dn mice, dams 5 mg/kg s.c. E10-E20/21, untreated Ts65Dn approx. 22500, euploid approx. 32300): approximately 33900
- increase in cell number in the SVZ vs untreated Ts65Dn ([2]; P2 Ts65Dn mice, treated E10-E20/21): +50%
- body weight [3]: did not further reduce the body weight
